Experimental data as given in US20260327225A1, “HETEROCYCLIC COMPOUNDS AS TRIGGERING RECEPTOR EXPRESSED ON MYELOID CELLS 2 AGONISTS AND METHODS OF USE” (VIGIL NEUROSCIENCE, INC., priority 2023, published 2026).

Target: T1, human TREM2 (Homo sapiens, UniProt Q9NZC2)
T1 construct: expressed in transfected cells; host or cells: HEK293T-hTREM2 cells (HEK cell line expressing human TREM2 and DAP12)
Experiment: TREM2 agonist potency by cellular phosphorylation of Syk (AlphaLisa) in HEK293T-hTREM2 cells expressing human TREM2 and DAP12
Assay type: cell-based
Conditions: HEK293 cells expressing hTREM2 and DAP12; 45 minutes at room temperature; Syk phosphorylation, AlphaLisa; read-out: hTREM2 EC50
Method: In vitro Measurement of Triggering Receptor Expressed on Myeloid Cells 2 activity using cellular phosphorylation of Spleen Tyrosine Kinase (“Syk”) Assays
Measurement of TREM2 agonist potency was done using a HEK cell line expressing human TREM2 and DAP12 (HEK293T-hTREM2 cells). Binding of small molecules to, and activation of, TREM2 increases the phosphorylation of Syk. The resultant levels of Syk phosphorylation are measured using a commercial AlphaLisa reagent kit. To perform the assay, HEK-hTREM2 cells were plated at 14,000 cells per well in a 384 well plate, in 25 μL of complete growth media and incubated at 37° C., 5% CO2 for 20-24 hours.
Prior to the assay, test compounds were diluted in the 384 well plates in assay buffer and allowed to equilibrate for 30 minutes. Growth media was removed from cell plates by inversion on blotting paper, and 25 μL of test articles in assay buffer was added to cells. Cells were incubated for 45 minutes at room temperature. After 45 minutes, assay buffer was removed and 10 μL of lysis buffer was added. Plates were shaken for 20 minutes at 350 RPM at room temperature. After complete lysis, AlphaLisa reagents were added to the lysate, and fluourescence intensity was measured using a Perkin Elmer Envision plate reader. Intensities were used to generate a standard curve, and % activation was calculated. Curve fitting was performed using Prism v9 software, log(agonist) vs response—variable slope (four parameters), and EC50s were calculated from the curve fit.
The results presented in Table B have been generated with the in vitro assay described above. This assay may be used to test any of the compounds described herein to assess and characterize a compound's ability to act as an agonist of TREM2.

T1 sequence (Q9NZC2 19-230): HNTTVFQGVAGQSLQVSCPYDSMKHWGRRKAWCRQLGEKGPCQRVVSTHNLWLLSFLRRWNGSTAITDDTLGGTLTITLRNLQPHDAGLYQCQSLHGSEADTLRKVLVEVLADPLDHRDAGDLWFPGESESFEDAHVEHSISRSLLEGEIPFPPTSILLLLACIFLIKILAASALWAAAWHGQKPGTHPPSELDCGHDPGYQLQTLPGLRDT
T1 sequence (O43914 22-113 partner): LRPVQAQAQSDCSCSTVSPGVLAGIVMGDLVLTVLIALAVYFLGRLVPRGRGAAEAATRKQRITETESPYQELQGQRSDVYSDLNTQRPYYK

Compound	EC50
Cc1nc2nc([C@H]3CCO[C@@H](c4cnn(C5CC5)c4)C3)nc(C34CC(C(F)(F)F)(C3)C4)c2cc1-c1cn(C)nn1 [Example 28, 2-((2R,4S)-2-(1-cyclopropyl-1H-pyrazol-4-yl)tetrahydro-2H-pyran-4-yl)-7-methyl-6-(1-methyl-1H-1,2,3-triazol-4-yl)-4-(3-(trifluoromethyl)-bicyclo[1.1.1]pentan-1-yl)pyrido[2,3-d]pyrimidine]	> 500 nM
Cc1nc2nc(N3C[C@@H](C)O[C@@H](c4cnn(C5CC5)c4)C3)nc(-c3ccc(F)cc3F)c2cc1C(=O)O [Example 3, 2-[(2S,6R)-2-(1-cyclopropylpyrazol-4-yl)-6-methyl-morpholin-4-yl]-4-(2,4-difluorophenyl)-7-methyl-pyrido[2,3-d]pyrimidine-6-carboxylic acid]	> 500 nM
Cc1nc2nc([C@H]3CCO[C@@H](c4cnn(C5CC5)c4)C3)nc(C34CC(C#N)(C3)C4)c2nc1C [Example 119, 3-(2-((2R,4S)-2-(1-cyclopropyl-1H-pyrazol-4-yl)tetrahydro-2H-pyran-4-yl)-6,7-dimethylpteridin-4-yl)bicyclo[1.1.1]pentane-1-carbonitrile]	100 to 500 nM
CC1Cc2c(nc([C@H]3CCO[C@@H](c4cnn(C5CC5)c4)C3)nc2-c2ccc(C(F)(F)F)cc2F)C(=O)N1C (stereo partly drawn) [Example 138, 2-[(2R,4S)-2-(1-cyclopropylpyrazol-4-yl)tetrahydropyran-4-yl]-4-[2-fluoro-4-(trifluoromethyl)phenyl]-6,7-dimethyl-5,6-dihydropyrido[3,4-d]pyrimidin-8-one formic acid]	> 500 nM
Cc1noc(-c2cc3c(-c4ccc(F)cc4F)nc(N4C[C@@H](C)O[C@@H](c5cnn(C6CC6)c5)C4)nc3nc2C)n1 [Example 6, (2S,6R)-2-(1-cyclopropylpyrazol-4-yl)-4-[4-(2,4-difluorophenyl)-7-methyl-6-(3-methyl-1,2,4-oxadiazol-5-yl)-pyrido[2,3-d]pyrimidin-2-yl]-6-methyl-morpholine]	< 100 nM
Cc1cnc(-c2cc3c(-c4ccc(F)cc4F)nc(N4C[C@@H](C)O[C@@H](c5cnn(C6CC6)c5)C4)nc3nc2C)o1 [Example 13, (2S,6R)-2-(1-cyclopropylpyrazol-4-yl)-4-[4-(2,4-difluorophenyl)-7-methyl-6-(5-methyloxazol-2-yl)pyrido[2,3-d]pyrimidin-2-yl]-6-methyl-morpholine]	< 100 nM
Cc1nc2ccc(C3CC(c4nc(-c5ccc(F)cc5F)c5nc(C)c(C)nc5n4)CCO3)cc2o1 (centres unmarked) [Example 113, 6-[4-[4-(2,4-difluorophenyl)-6,7-dimethyl-pteridin-2-yl]tetrahydropyran-2-yl]-2-methyl-1,3-benzoxazole]	< 100 nM
Cc1nc2nc(N3C[C@@H](C)O[C@@H](c4ccn5nccc5c4)C3)nc(C34CC(C(F)(F)F)(C3)C4)c2nc1C [Example 111, (2R,6S)-4-[6,7-dimethyl-4-[3-(trifluoromethyl)-1-bicyclo[1.1.1]pentanyl]pteridin-2-yl]-2-methyl-6-pyrazolo[1,5-a]pyridin-5-yl-morpholine]	< 100 nM
Cc1nc2nc(C3CCOC(c4ccc5nccn5c4)C3)nc(-c3ccc(F)cc3F)c2nc1C (centres unmarked) [Example 94, 4-(2,4-difluorophenyl)-2-(2-imidazo[1,2-a]pyridin-6-yltetrahydropyran-4-yl)-6,7-dimethyl-pteridine]	< 100 nM
Cc1nc2nc(N3C[C@@H](C)O[C@@H](c4cnn(C5CC5)c4)C3)nc(C34CC(C(F)(F)F)(C3)C4)c2cc1C(F)(F)Cl (racemic) [Example 90, (2S,6R)-4-(6-(chloro-difluoromethyl)-7-methyl-4-(3-(trifluoromethyl)-bicyclo[1.1.1]pentan-1-yl)pyrido[2,3-d]pyrimidin-2-yl)-2-(1-cyclopropyl-1H-pyrazol-4-yl)-6-methylmorpholine]	100 to 500 nM
Cc1nc2nc(N3C[C@@H](C)O[C@@H](c4cnn(C5CC5)c4)C3)nc(C34CC(C(F)(F)F)(C3)C4)c2nc1C1CN(C)C1 [Example 87, (2S,6R)-2-(1-cyclopropylpyrazol-4-yl)-6-methyl-4-[7-methyl-6-(1-methylazetidin-3-yl)-4-[3-(trifluoromethyl)-1-bicyclo[1.1.1]pentanyl]pteridin-2-yl]morpholine]	100 to 500 nM

Continued, values first:

EC50	Compound
< 100 nM	Cc1nnc(-c2cc3c(C45CC(C(F)(F)F)(C4)C5)nc([C@H]4CCO[C@@H](c5cnn(C6CC6)c5)C4)nc3nc2C)o1 [Example 23, 2-(2-((2R,4S)-2-(1-cyclopropyl-1H-pyrazol-4-yl)tetrahydro-2H-pyran-4-yl)-7-methyl-4-(3-(trifluoromethyl)bicyclo[1.1.1]pentan-1-yl)pyrido[2,3-d]pyrimidin-6-yl)-5-methyl-1,3,4-oxadiazole]
< 100 nM	CC(=O)c1cc2c(-c3ccc(F)cc3F)nc(N3C[C@@H](C)O[C@@H](c4cnn(C5CC5)c4)C3)nc2nc1C [Example 4, 1-[2-[(2S,6R)-2-(1-cyclopropylpyrazol-4-yl)-6-methyl-morpholin-4-yl]-4-(2,4-difluorophenyl)-7-methyl-pyrido[2,3-d]pyrimidin-6-yl]ethanone]
< 100 nM	Cc1nc2nc([C@H]3CCO[C@@H](c4cnn(C5CC5)c4)C3)nc(C34CC(C(F)(F)F)(C3)C4)c2cc1[S+](C)[O-] (stereo partly drawn) [Example 32, 2-[(2R,4S)-2-(1-cyclopropylpyrazol-4-yl)tetrahydropyran-4-yl]-7-methyl-6-methylsulfinyl-4-[3-(trifluoromethyl)-1-bicyclo[1.1.1]pentanyl]pyrido[2,3-d]pyrimidine]
< 100 nM	Cc1nc2nc(N3C[C@@H](C)O[C@@H](c4cnn(C5CC5)c4)C3)nc(C34CC(C3)C4)c2nc1C [Example 100, (2S,6R)-4-[4-(1-bicyclo[1.1.1]pentanyl)-6,7-dimethyl-pteridin-2-yl]-2-(1-cyclopropylpyrazol-4-yl)-6-methyl-morpholine]
< 100 nM	COCn1cc([C@H]2CN(c3nc(C45CC(C(F)(F)F)(C4)C5)c4cc(C#N)c(C)nc4n3)C[C@@H](C)O2)cn1 [Example 71]
< 100 nM	Cc1nc2nc(N3C[C@@H](C)O[C@@H](c4cnn(CC(F)F)c4)C3)nc(C34CC(C(F)(F)F)(C3)C4)c2cc1C#N [Example 70, 2-((2S,6R)-2-(1-(2,2-difluoroethyl)-1H-pyrazol-4-yl)-6-methyl-morpholino)-7-methyl-4-(3-(trifluoromethyl)bicyclo[1.1.1]pentan-1-yl)pyrido[2,3-d]pyrimidine-6-carbonitrile]
< 100 nM	Cc1noc(-c2cc3c(C45CC(C(F)(F)F)(C4)C5)nc(N4C[C@@H](C)O[C@@H](c5cnn(C6CC6)c5)C4)nc3nc2C)n1 [Example 22, (2S,6R)-2-(1-cyclopropyl-pyrazol-4-yl)-6-methyl-4-[7-methyl-6-(3-methyl-1,2,4-oxadiazol-5-yl)-4-[3-(trifluoromethyl)-1-bicyclo[1.1.1]pentanyl]-pyrido[2,3-d]pyrimidin-2-yl]morpholine]
< 100 nM	Cc1nc2nc(N3C[C@@H](C)O[C@@H](c4cnn(C5CC5)c4)C3)nc(C3CCCC3)c2cc1C#N [Example 72, 4-cyclopentyl-2-[(2S,6R)-2-(1-cyclopropyl-pyrazol-4-yl)-6-methyl-morpholin-4-yl]-7-methyl-pyrido[2,3-d]pyrimidine-6-carbonitrile]
< 100 nM	Cc1nc2nc(C3CCOC(c4ccn5nccc5c4)C3)nc(-c3ccc(F)cc3F)c2nc1C (centres unmarked) [Example 93, 4-(2,4-difluorophenyl)-6,7-dimethyl-2-(2-pyrazolo[1,5-a]pyridin-5-yltetrahydropyran-4-yl)pteridine]
